{"source": "patent US4084006A", "about": "“Method of using dialkylphenols an antiviral agents” (priority 1977, dated 1978)", "key": {"San Carlos virus": {"system": "San Carlos virus", "assay": "Dimethylphenols against San Carlos virus in tissue culture (human embryonic lung), CPE", "type": "cell-based, San Carlos virus (adenovirus)", "conditions": "for CPE with TCID50 doses of San Carlos virus: human embryonic lung, 100 TCID50"}, "[1]": {"system": "Mycoplasma pulmonis (ATCC 19612)", "assay": "Rats infected intranasally with Mycoplasma pulmonis: lung pathology and breeding", "type": "in vivo, Mycoplasma pulmonis (host: rat)", "conditions": "1 PPB in drinking water 58 days; three M. pulmonis infected female rats", "from_the_text": "Attempts were made to test the effect of infecting rats with Mycoplasma pulmonis (ATCC 19612) so that they could transmit the disease to their cage mates and, also allowed them to breed. This was also done to test if the mothers would pass the infection on to their litters. These rats were purchased from a laboratory in Indianapolis, Indiana and they were divided into 6 groups with male animals in each group. In the 5 experimental groups, a total of 15 female rats out of 30, and in the control group 4 female rats out of 8 were infected intranasally with Mycoplasma pulmonis (ATCC 19612). There were two male rats per experimental group and 3 for the controls totaling 13 male rats, and none of these were infected with M. pulmonis.\nThe experimental groups (8 rats each) and control group were treated as follows:\nAll rats were fed ad libitum rat chow, and their cages were cleaned 5-6 times weekly. For the 5 experimental groups, the 2,4 DMP was dissolved in distilled water used for their drinking fluid while the control only received distilled water. There were times when the rats spilled excessive amounts of their drinking water and this caused a certain amount of the phenol to be evaporated from these cages, particularly those groups receiving the higher concentrations of the phenol. […]"}, "[2]": {"system": "Herpes simplex virus (HF strain)", "assay": "Inhibition of cytopathic activity (CPE) of herpes virus in HEL tissue culture", "type": "cell-based", "conditions": "for CPE with 100 TCID50 doses of Herpes virus: HEL cells", "method": "(§1) The anti-viral activity of 2,4-dimethylphenol was studied in the following manner. Tissue cultures derived from human embryonic lung (HEL) were grown and maintained as monolayers in 32 ounce prescription bottles using growth medium consisting of 85% synthetic mixture No. 199 plus 15% unfiltered fetal bovine serum (FBS) adjusted to pH 7.4. Tube cultures of HEL cells were prepared in similar fashion and used in assays for anti-viral activity. During chemotherapy tests, the maintenance medium consisted of synthetic mixture No. 199 with 7.5% FBS. The virus spectrum in tissue culture consisted of two DNA viruses, a San Carlos virus isolated by Davis [see Science 133, 2059, 1961] and later identified as an adenovirus, and the HF strain of herpes simplex virus. In addition, a RNA virus represented by measles was included in the examples.\n(§2) In performing the initial assays, the tissue cultures were treated prophylactically and the virus was treated in vitro with decreasing 2,4-dimethylphenol concentrations ranging from […] (2 × 10^-6) to 2 attograms (ag) (2 × 10^-18) per ml. The procedure consisted of pretreating tube cultures of HEL cells for two to three days with growth medium containing varying concentrations of 2,4-dimethylphenol. After the prophylactic treatment, the test fluids were removed and replaced with fresh maintenance medium. At this time, 200 TCID50 doses of virus were mixed in vitro with the same decreasing concentrations of the distillate used to pretreat the cells, then the mixture was inoculated into replicate culture of HEL cells so that the final incolum consisted of 100 TCID50 doses of virus in tubes with 2,4-dimethylphenol at the same level used to prophylactically treat the cells.\n(§3) The same number of infected control tubes were handled in the same way except that 2,4-dimethylphenol was omitted from all media. Culture tubes were rotated at 37° C. and examined daily for a period of 7 days for cytopathic activity (CPE). […] By the same token, the CPE of herpes virus was inhibited by both the 10^-12 and 10^-15 level, possibly indicating two active components. […]"}, "Measles": {"system": "Measles", "assay": "Inhibition of cytopathic activity (CPE) of measles virus in HEL tissue culture", "type": "cell-based", "conditions": "for CPE with 100 TCID50 doses of Measles virus: HEL cells", "method": "as §1, §2, §3"}}, "data": [{"smiles": "Cc1ccc(O)c(C)c1", "note": "[2,4-dimethylphenol]", "values": [{"measurement": "CPE with TCID50 doses of San Carlos virus", "setting": "San Carlos virus; 10^-6 grams 2X", "result": "3+ (75% of cells infected with selected virus)"}, {"measurement": "CPE with TCID50 doses of San Carlos virus", "setting": "San Carlos virus; 10^-7 grams 2X", "result": "2+ (50% of cells infected with selected virus)"}, {"measurement": "CPE with TCID50 doses of San Carlos virus", "setting": "San Carlos virus; 10^-8 grams 2X", "result": "± (less than 10% infected)"}, {"measurement": "CPE with TCID50 doses of San Carlos virus", "setting": "San Carlos virus; 10^-9 grams 2X", "result": "± (less than 10% infected)"}, {"measurement": "CPE with TCID50 doses of San Carlos virus", "setting": "San Carlos virus; 10^-10 grams 2X", "result": "± (less than 10% infected)"}, {"measurement": "CPE with TCID50 doses of San Carlos virus", "setting": "San Carlos virus; 10^-11 grams 2X", "result": "1+ (25% of cells infected with selected virus)"}, {"measurement": "CPE with TCID50 doses of San Carlos virus", "setting": "San Carlos virus; 10^-12 grams 2X", "result": "1+ (25% of cells infected with selected virus)"}, {"measurement": "CPE with TCID50 doses of San Carlos virus", "setting": "San Carlos virus; 10^-13 grams 2X", "result": "1+ (25% of cells infected with selected virus)"}, {"measurement": "CPE with TCID50 doses of San Carlos virus", "setting": "San Carlos virus; 10^-14 grams 2X", "result": "2+ (50% of cells infected with selected virus)"}, {"measurement": "CPE with TCID50 doses of San Carlos virus", "setting": "San Carlos virus; 10^-15 grams 2X", "result": "2+ (50% of cells infected with selected virus)"}, {"measurement": "anti-viral activity against San Carlos virus", "setting": "San Carlos virus; at various concentrations", "result": "exhibit anti-viral activity"}, {"measurement": "lung infection compared with the other four groups and the controls", "setting": "[1]", "result": "for all practical purposes, clear of infection"}, {"measurement": "CPE with 100 TCID50 doses of Herpes virus", "setting": "[2]; 10^-6 grams 2X", "result": "3+ (75% of cells infected with selected virus)"}, {"measurement": "CPE with 100 TCID50 doses of Herpes virus", "setting": "[2]; 10^-7 grams 2X", "result": "3+ (75% of cells infected with selected virus)"}, {"measurement": "CPE with 100 TCID50 doses of Herpes virus", "setting": "[2]; 10^-8 grams 2X", "result": "2+ (50% of cells infected with selected virus)"}, {"measurement": "CPE with 100 TCID50 doses of Herpes virus", "setting": "[2]; 10^-9 grams 2X", "result": "2+ (50% of cells infected with selected virus)"}, {"measurement": "CPE with 100 TCID50 doses of Herpes virus", "setting": "[2]; 10^-10 grams 2X", "result": "2+ (50% of cells infected with selected virus)"}, {"measurement": "CPE with 100 TCID50 doses of Herpes virus", "setting": "[2]; 10^-11 grams 2X", "result": "2+ (50% of cells infected with selected virus)"}, {"measurement": "CPE with 100 TCID50 doses of Herpes virus", "setting": "[2]; 10^-12 grams 2X", "result": "1+ (25% of cells infected with selected virus)"}, {"measurement": "CPE with 100 TCID50 doses of Herpes virus", "setting": "[2]; 10^-13 grams 2X", "result": "2+ (50% of cells infected with selected virus)"}, {"measurement": "CPE with 100 TCID50 doses of Herpes virus", "setting": "[2]; 10^-14 grams 2X", "result": "3+ (75% of cells infected with selected virus)"}, {"measurement": "CPE with 100 TCID50 doses of Herpes virus", "setting": "[2]; 10^-15 grams 2X", "result": "1+ (25% of cells infected with selected virus)"}, {"measurement": "CPE with 100 TCID50 doses of Herpes virus", "setting": "[2]; 10^-16 grams 2X", "result": "4+ (100% of cells infected with selected virus)"}, {"measurement": "CPE with 100 TCID50 doses of Herpes virus", "setting": "[2]; 10^-17 grams 2X", "result": "4+ (100% of cells infected with selected virus)"}, {"measurement": "CPE with 100 TCID50 doses of Herpes virus", "setting": "[2]; 10^-18 grams 2X", "result": "2+ (50% of cells infected with selected virus)"}, {"measurement": "CPE of herpes virus", "setting": "[2]; both the 10^-12 and 10^-15 level", "result": "inhibited"}, {"measurement": "CPE with 100 TCID50 doses of Measles virus", "setting": "Measles; 10^-6 grams 2X", "result": "3+ (75% of cells infected with selected virus)"}, {"measurement": "CPE with 100 TCID50 doses of Measles virus", "setting": "Measles; 10^-7 grams 2X", "result": "3+ (75% of cells infected with selected virus)"}, {"measurement": "CPE with 100 TCID50 doses of Measles virus", "setting": "Measles; 10^-8 grams 2X", "result": "3+ (75% of cells infected with selected virus)"}, {"measurement": "CPE with 100 TCID50 doses of Measles virus", "setting": "Measles; 10^-9 grams 2X", "result": "2+ (50% of cells infected with selected virus)"}, {"measurement": "CPE with 100 TCID50 doses of Measles virus", "setting": "Measles; 10^-10 grams 2X", "result": "2+ (50% of cells infected with selected virus)"}, {"measurement": "CPE with 100 TCID50 doses of Measles virus", "setting": "Measles; 10^-11 grams 2X", "result": "2+ (50% of cells infected with selected virus)"}, {"measurement": "CPE with 100 TCID50 doses of Measles virus", "setting": "Measles; 10^-12 grams 2X", "result": "2+ (50% of cells infected with selected virus)"}, {"measurement": "CPE with 100 TCID50 doses of Measles virus", "setting": "Measles; 10^-13 grams 2X", "result": "2+ (50% of cells infected with selected virus)"}, {"measurement": "CPE with 100 TCID50 doses of Measles virus", "setting": "Measles; 10^-14 grams 2X", "result": "1+ (25% of cells infected with selected virus)"}, {"measurement": "CPE with 100 TCID50 doses of Measles virus", "setting": "Measles; 10^-15 grams 2X", "result": "1+ (25% of cells infected with selected virus)"}, {"measurement": "CPE with 100 TCID50 doses of Measles virus", "setting": "Measles; 10^-16 grams 2X", "result": "± (less than 10% infected)"}, {"measurement": "CPE with 100 TCID50 doses of Measles virus", "setting": "Measles; 10^-17 grams 2X", "result": "1+ (25% of cells infected with selected virus)"}, {"measurement": "CPE with 100 TCID50 doses of Measles virus", "setting": "Measles; 10^-18 grams 2X", "result": "0 (no cells infected)"}, {"measurement": "Measles CPE", "setting": "Measles; concentrations less than the 10^-14 level", "result": "appeared to be inhibited"}]}]}
